Source: patent US5155123A, “Pyridine derivatives and pharmaceutical compositions containing them” (Richter Gedeon Vegyeszeti Gyar R.T., priority 1989, dated 1992)
Read-outs that look alike come from different tables or passages of the source.

How the values were obtained:
gastric acid secretion = test: gastric acid secretion-inhibiting effect, Shay's method (pylorus-ligated rats); type: in vivo, rat (female H-Wistar); conditions: Rattus norvegicus
Procedure: According to this method female H-Wistar rats weighing 120 to 150 g were starved in latticed cages for 24 hours. The animals received water ad libitum. Then their pylorus was ligated under a slight ether anaesthesia. The test compounds were administered during the surgical intervention. After 4 hours the animals were killed by ether narcosis. After excision of the stomach the volume and pH value of the gastric content were measured. In several cases the hydrochloric acid content was determined by titration.

rats = conditions: rat, in vivo, po, 120 mg/kg
[1] = test system: gastric ulcers induced in rats by indomethacine; test: inhibition of gastric ulcers induced by indomethacine in rats; type: in vivo, rat; conditions: 50 mg/kg oral dose, ulcers induced by 40 mg/kg s.c. indomethacine
Procedure: An 50 mg/kg oral dose of 1-benzyl-2-(cyanoimino)pyridine inhibits the development of gastric ulcers induced in rats by 40 mg/kg subcutaneous (s.c.) dose of indomethacine (chemically [1-(4-chlorobenzoyl)-2-methyl-5-methoxyindol-3-yl]acetic acid) by 100%.

[2] = Shay's method, female H-Wistar rats 120 to 150 g, starved 24 hours, pylorus ligated, 4 hours, given during the surgical intervention, read-out: ED50

Row | Structure (SMILES) | ED50 (gastric acid secretion; [2]) | also measured
1 | O=[N+]([O-])N=c1ccccn1Cc1ccccc1 [1-benzyl-2-(nitroiminopyridine, 1-benzyl-2-(nitroimino)pyridine] | 13.6 mg/kg | 
2 | Cc1ccccc1Cn1ccccc1=NC#N [2-(cyanoimino)-1-(2-methylbenzyl)pyridine] | 11.7 mg/kg | 
3 | N#CN=c1ccccn1Cc1cccc(Cl)c1 [1-(3-chlorobenzyl)-2-(cyanoimino)pyridine] | 9.88 mg/kg | 
4 | N#CN=c1ccccn1Cc1ccccc1 [1-benzyl-2-(cyanoimino)pyridine] | 3.26 mg/kg | toxic symptom (rats): No toxic symptom; inhibition of the development of gastric ulcers [1]: 100%
5 | N#CN=c1ccccn1Cc1ccc(F)cc1 [2-(cyanoimino)-1-(4-fluorobenzyl)pyridine] | 8.36 mg/kg | 
6 | N#CN=c1ccccn1Cc1cccc(C(F)(F)F)c1 [2-(cyanoimino)-1-(3-trifluoromethylbenzyl)pyridine] | 12.2 mg/kg | 
7 | CN=C(NC#N)NCCSCc1nc[nH]c1C [cimetidine, 1-cyano-2-methyl-3-[2-[[(5-methylimidazol-4-yl)methyl]thio]ethyl]-guanidine, reference compound] |  | ED50 (gastric acid secretion; po, 4 h, read-out: oral ED50): 50 mg/kg
8 | N#CN=c1ccccn1Cc1ccccc1F [2-(cyanoimino)-1-(2-fluorobenzyl)pyridine] | 4.3 mg/kg | 
9 | N#CN=c1ccccn1Cc1ccccc1Cl [1-(2-chlorobenzyl)-2-(cyanoimino)pyridine] | 1.8 mg/kg | 
